According to US9040250B2, “Binding interaction of proanthocyanidins with bacteria and bacterial components” (The United States of America, as represented by the …, priority 2006, dated 2015):
Where two headings read alike, the source gives them in different places.

Key:
[1] = tested on: LPS-FITC (E. coli 055:B5); test: LPS-FITC binding by PACs immobilized on glass waveguide (stationary assay); set-up: species or system Escherichia coli; settings: patterned at 10 mg/mL via PMPI; LPS-FITC 1 hour
Excerpt: Immobilization of PACs and LPS binding assay—To determine the ability of PAC materials to effectively bind bacteria and bacterial cell components upon immobilization to a solid support, PACs from cranberry and grape juices were covalently attached to the surface of a glass microscope slide (waveguide) using a modification of a common technique used for protein immobilization (Rowe et al., Anal. Chem., 71, 3846 (1999)). Catechin monomer and buffer only areas were also included as controls. Briefly, the waveguides, glass microscope slides (Daigger, Wheeling, Ill.), were cleaned by immersion in potassium hydroxide/methanol solution (Cras et al., Biosens. Bioelectron., 14, 683 (1999)) followed by rinsing and drying. The clean waveguides were then incubated with 2% (3-mercaptopropyl)triethoxysilane (Pierce Chemicals, Rockford, Ill.) in toluene for 45 minutes followed by rinsing and drying. The slides were immersed in 1.8 mM N-[p-maleimidophenyl]isocyanate (PMPI) in ethanol for 1 hour. The maleimide-group of PMPI reacts with the sulfhydryl-group provided by the silane reaction leaving the isocyanate-group free to react with the hydroxyl-groups of PACs. […] Slides were imaged using evanescent wave fluorescence spectroscopy with excitation at 496 nm and emission collected above 515 nm. […]

[2] = tested on: FITC-labeled LPS (from E. coli 055:B5); test: Fluorescence-based pull down assay of FITC-LPS with Sepharose-immobilized PACs; type: binding, Escherichia coli; settings: for IC50: PAC beads equilibrated with lipid A, 3 μg/mL FITC-LPS (approx. 3 nM)
Experimental: PAC and catechin immobilization—Purified PACs and catechin (Sigma-Aldrich) were immobilized onto activated thiol-Sepharose® 4B (Sigma-Aldrich) via a (N-[p-maleimidophenyl]isocyanate) (PMPI; Pierce) crosslinker. Sepharose® was swelled in deionized water for 1 hour (1 g dry material in 15 mL H2O). The material was then washed using fresh dI-H2O over five suspend/centrifuge/decant cycles (total 50 mL per gram dry starting material). Suspension was accomplished using a vortex and centrifuge steps were conducted at 3,000 g for five minutes. The Sepharose® material (total volume 5 mL per gram starting material) was then rinsed three times with ethanol (total volume 30 mL per gram starting material). The PMPI crosslinker was incubated with the rinsed Sepharose material for 1 hour at room temperature under constant agitation using a 10-fold molar excess of PMPI over the thiol-group concentration with 3% dimethylsulfoxide in ethanol (10 mL per gram starting material). Incubation was followed by centrifuging, decanting, and rinsing in 50% ethanol for three cycles. The Sepharose was then incubated overnight at 4° C. in ethanol with PAC or catechin using a 10-fold molar excess of analyte in 50% ethanol (10 mL per gram starting material). As a final step, the Sepharose was rinsed over four cycles using 50% ethanol (40 mL total per gram starting material) and resuspended in 0.02% sodium azide in H2O (16 mL final volume per gram starting material). The materials were stored in the dark at 4° C. until use. PAC concentrations for bead sets were determined by Prussian blue assay.
Fluorescence-based pull down assays for lipopolysaccharide (LPS) were conducted in 50 mM TRIS at pH 8.0 using Sepharose-immobilized PACs and agarose-immobilized polymyxin B (Sigma-Aldrich, St. Louis, Mo.). […] The fluorescence of the FITC-labeled LPS (from E. coli 055:B5; Sigma-Aldrich) was measured using a Tecan XSafire monochrometer-based micro plate reader at 495 nm excitation and 520 nm emission (5 nm bandwidths). […]

HEK-CD14-TLR4/MD2 cells = test: Cytotoxicity, CellTiter96 cell proliferation assay; type: cell-based, human; settings: 48 h culture
Experimental: Cytotoxicity assays—Cellular toxicity was measured using a calorimetric cell proliferation assay (CellTiter96™, Promega). HEK-CD14-TLR4/MD2 cells were seeded into the wells of a 96-well plate (1×10^4 cells/well) and cultured with a dose range of test compounds for 48 h prior to assay according to the manufacturer's instructions.

[3] = tested on: HEK 293 cells stably expressing human CD14 and TLR4/MD2; test: LPS endocytosis (internalization) in HEK-CD14-TLR4/MD2 cells; type: cell-based; settings: 25 nM LPS, 1.5 h 37° C.; 0.5 μM PAC; antibodies 500 nM in binding sites
Experimental: (§1) Analysis of LPS membrane binding and endocytosis. Human embryonic kidney cells (HEK 293) stably expressing human CD14 and TLR4/MD2 (HEK-CD14-TLR4/MD2; Invivogen) were grown in chambered wells and incubated with 25 nM LPS (E. coli serotype O55:B5, Sigma) in the absence or presence of 0.5 μM LH20 PAC (Dial>6K) for 1.5 h at 37° C. […] After incubation, the cells were washed with PBS (10 min) twice and either fixed (with 3.7% paraformaldehyde) to assess LPS membrane binding or fixed and permeabilized (with 0.1% Triton X-100) to determine LPS internalization. After blocking with 1% normal goat serum, membrane bound or internalized LPS was detected using a goat anti-LPS antibody (O/K serotype-specific, Abcam) conjugated to fluorescein. Nuclei were counterstained with DAPI. Imaging was performed using an Olympus IX-71 microscope. The relative amounts of membrane-associated or intracellular fluorescence were quantified by image analysis using Image J software (NIH, v. 1.37). Data is reported as the mean channel fluorescence from membrane-associated or internalized LPS and represents the analysis of 10 to 20 cells from each sample (minimum 10 measurements per each cell). Merged images were produced using Photoshop CS2 (ver. 9).

[4] = tested on: HEK 293 cells stably expressing human CD14 and TLR4/MD2; test: LPS membrane binding in HEK-CD14-TLR4/MD2 cells; type: cell-based; settings: 25 nM LPS, 1.5 h 37° C.; 0.5 μM PAC; antibodies 500 nM in binding sites
Experimental: as §1

Substance | binding of LPS-FITC by material immobilized on waveguide [1] | IC50 ([2]; read-out: IC50, inhibition of FITC-LPS binding by immobilized PACs from cranberries) [nM] | IC50 ([2]; read-out: IC50, inhibition of FITC-LPS binding by immobilized PACs from tea) [nM] | inhibition of FITC-LPS binding by immobilized PACs at high lipid A concentration ([2]; lipid A concentrations as high as 100 μM) [%] | concentrations at which no toxicity was elicited (HEK-CD14-TLR4/MD2 cells) | inhibition of LPS endocytosis [3] [%] | decrease in membrane-bound LPS (LPS binding inhibition) [4]
catechin | no binding even at the highest concentrations tested |  |  |  |  |  | 
diphosphoryl lipid A |  | 500 | 100 | ≤ 80 | below 3 μM | 84 | did not significantly reduce LPS membrane binding
